The experiment addresses SARS-CoV-2 3CLpro (Severe acute respiratory syndrome coronavirus 2, UniProt P0DTD1). The experiment can be described thus: biochemical. The format is biochemical. More on the design: Replicate_1 / Replicate_2 / mean / mean (LOPAC_screen_w_protease): unit not given here. As to conditions: for inhibition at 5 µM: 4 h.
[1] abbreviates: LOPAC1280 primary screen with protease, 5 µM compound, mean of two replicates.
Setting [2] is: sheet LOPAC_screen_w_protease, LOPAC1280 primary screen at 5 µM, with protease, mean of the two replicates.
[3] abbreviates: sheet LOPAC_screen_w_protease, LOPAC1280 primary screen at 5 µM, with protease, replicate 1.
Where [4] appears, read: sheet LOPAC_screen_w_protease, LOPAC1280 primary screen at 5 µM, with protease, replicate 2.
[5] abbreviates: sheet LOPAC_screen_w_protease, primary screen with protease, 5 µM, mean of two replicates, read-out: mean.
The mark [6] stands for this setting: sheet LOPAC_screen_w_protease, primary screen with protease, 5 µM, replicate 1, read-out: Replicate_1.
Where [7] appears, read: sheet LOPAC_screen_w_protease, primary screen with protease, 5 µM, replicate 2, read-out: Replicate_2.
Setting [8] is: LOPAC1280 primary screen with protease, 5 µM compound, replicate 1.
Setting [9] is: LOPAC1280 primary screen with protease, 5 µM compound, replicate 2.
The mark [10] stands for this setting: sheet LOPAC_screen_w_protease, primary screen of LOPAC1280 at 5 µM with protease, mean of the two replicates.
[11] abbreviates: sheet LOPAC_screen_w_protease, primary screen of LOPAC1280 at 5 µM with protease, replicate 1.
[12] abbreviates: sheet LOPAC_screen_w_protease, primary screen of LOPAC1280 at 5 µM with protease, replicate 2.
Where [13] appears, read: LOPAC1280 primary screen with protease, 5 µM compound, mean of the two replicates.
The mark [14] stands for this setting: sheet LOPAC_screen_w_protease, LOPAC1280 at 5 µM, mean of two replicates, read-out: mean.
[15] abbreviates: sheet LOPAC_screen_w_protease, LOPAC1280 at 5 µM, replicate 1, read-out: Replicate_1.
Setting [16] is: sheet LOPAC_screen_w_protease, LOPAC1280 at 5 µM, replicate 2, read-out: Replicate_2.

Counter-ions that a name gives are not always drawn. Like-named read-outs stand apart in the source and are kept apart here.

Turning to `CC(C)[C@@]1(NC(=O)[C@@H]2C=C3c4cccc5[nH]cc(c45)C[C@H]3N(C)C2)O[C@@]2(O)[C@@H]3CCCN3C(=O)[C@H](Cc3ccccc3)N2C1=O` [Ergocristine], the inhibition at 5 µM reads like this: (read-out: Replicate_1) 4.04%; (read-out: Replicate_2) 2.86%; (read-out: mean) 3.45%.
`O=P(O)(O)C(Cl)(Cl)P(=O)(O)O` [Clodronic acid]: the inhibition at 5 µM runs as follows: (LOPAC1280 primary screen with protease, 5 µM compound, replicate 1, read-out: Replicate_1 (LOPAC_screen_w_protease)) 2.04%; (LOPAC1280 primary screen with protease, 5 µM compound, replicate 2, read-out: Replicate_2 (LOPAC_screen_w_protease)) 1.36%. Also, the “mean (LOPAC_screen_w_protease)” value under setting [1] was 1.697.
Consider (-)-3-Methoxynaltrexone hydrochloride, for which the mean (sheet LOPAC_screen_w_protease, LOPAC1280 primary screen with protease, 5 µM compound, mean of the two replicates) was found to be 5.384. The same compound came in with a Replicate_1 (sheet LOPAC_screen_w_protease, LOPAC1280 primary screen with protease, 5 µM compound, replicate 1) of 4.034. Also, the Replicate_2 (sheet LOPAC_screen_w_protease, LOPAC1280 primary screen with protease, 5 µM compound, replicate 2) is given as 6.735.
`COC1=C(OC)C(=O)c2ccccc2C1=O` [2,3-Dimethoxy-1,4-naphthoquinone] came in with a mean under setting [2] of 0.8524. The same compound yielded a Replicate_1 under setting [3] of 0.1505. Besides, the Replicate_2 under setting [4] stood at 1.554.
Turning to `COc1ccc2c(c[n+](C)c3c4cc5c(cc4ccc23)OCO5)c1OC` [Chelerythrine chloride], the inhibition at 5 µM amounted to 11.5% (sheet LOPAC_screen_w_protease, primary screen at 5 µM, mean of two replicates, read-out: mean (LOPAC screen with protease)); 12.7% (sheet LOPAC_screen_w_protease, primary screen at 5 µM, replicate 1, read-out: Replicate_1 (LOPAC screen with protease)); 10.3% (sheet LOPAC_screen_w_protease, primary screen at 5 µM, replicate 2, read-out: Replicate_2 (LOPAC screen with protease)).
As for `CC(C)NCC(O)COc1ccc(CCOCC2CC2)cc1` (stereo not drawn) [Betaxolol hydrochloride], the inhibition at 5 µM (read-out: Replicate_1) came out at 0.905%, the inhibition at 5 µM (read-out: Replicate_2) stood at 3.87% and the inhibition at 5 µM (read-out: mean) worked out at 2.39%.
Turning to `CCNC(=O)N1CCN(CCCC(c2ccc(F)cc2)c2ccc(F)cc2)CC1` [Amperozide hydrochloride], the inhibition at 5 µM by setting is: under setting [5], 0.1%; under setting [6], 0.58%; under setting [7], -0.38%.
On to `O=C(O)[C@@H]1CCN1` [L-azetidine-2-carboxylic acid], for which the inhibition at 5 µM is -0.00926% under setting [5], -0.0704% under setting [6] and 0.0519% under setting [7].
Turning to `CCCn1c(C)c(C(=O)c2cccc3ccccc23)c2ccccc21` [JWH-015], under setting [1], the “mean (LOPAC_screen_w_protease)” value worked out at 1.386. The “Replicate_1 (LOPAC_screen_w_protease)” value under setting [8] is 1.748. The “Replicate_2 (LOPAC_screen_w_protease)” value under setting [9] amounted to 1.024.
Compound `N[C@@H]1CONC1=O` (racemic) [DL-Cycloserine] registered a mean under setting [10] of 3.186. Under setting [11], this compound gave a Replicate_1 of 2.383. For the same compound, the Replicate_2 under setting [12] was determined as 3.989.
`C=CC[N+](C)(C)c1ccc(CCC(=O)CCc2ccc([N+](C)(C)CC=C)cc2)cc1.[Br-].[Br-]` [BW 284c51] showed a Replicate_1 of 2.051, a Replicate_2 of 3.598 and a mean of 2.825.
`Cc1nc(N=Nc2ccc(C(=O)O)cc2)c(COP(=O)(O)O)c(C=O)c1O` [MRS 2159]: the “mean (LOPAC_screen_w_protease)” value under setting [13] amounted to 1.803. Moreover, the “Replicate_1 (LOPAC_screen_w_protease)” value under setting [8] is on record as 1.948. Also, the “Replicate_2 (LOPAC_screen_w_protease)” value under setting [9] came to 1.658.
In the case of `O=C(c1ccc(F)cc1)C1CCN(CCn2c(=O)[nH]c3ccccc3c2=O)CC1` [Ketanserin tartrate], the inhibition at 5 µM (sheet LOPAC_screen_w_protease, LOPAC1280 primary screen at 5 µM, with protease, mean of two replicates, read-out: mean) is -1.02%; the inhibition at 5 µM (sheet LOPAC_screen_w_protease, LOPAC1280 primary screen at 5 µM, with protease, replicate 1, read-out: Replicate_1) turned out to be 1.01%; the inhibition at 5 µM (sheet LOPAC_screen_w_protease, LOPAC1280 primary screen at 5 µM, with protease, replicate 2, read-out: Replicate_2) was -3.04%.
On to `CN1CC[C@]2(CCN3CCc4c(oc5ccccc45)[C@@H]3C2)N(C)C1=O` [MK-912], for which the “mean (LOPAC_screen_w_protease)” value under setting [1] was determined as 1.637. The “Replicate_1 (LOPAC_screen_w_protease)” value under setting [8] turned out to be 1.746. Further, the “Replicate_2 (LOPAC_screen_w_protease)” value under setting [9] was determined as 1.529.
On to `Cn1c(=O)c2c(ncn2C)n(C)c1=O` [Caffeine], for which the inhibition at 5 µM is, setting by setting: (sheet LOPAC_screen_w_protease, primary screen with protease, mean of two replicates, read-out: mean) 2.35%; (sheet LOPAC_screen_w_protease, primary screen with protease, replicate 1, read-out: Replicate_1) 1.98%; (sheet LOPAC_screen_w_protease, primary screen with protease, replicate 2, read-out: Replicate_2) 2.71%.
As for `CN(C)CCCO[C@@H]1[C@H]2OC(C)(C)O[C@H]2O[C@@H]1[C@H](O)CO` [Amiprilose hydrochloride], the inhibition at 5 µM stood at 1.08% under setting [14], 1.63% under setting [15] and 0.526% under setting [16].
As to `N[C@@H](Cc1ccc(F)cc1)C(=O)O` [p-Fluoro-L-phenylalanine], the “mean (LOPAC_screen_w_protease)” value under setting [13] came to 2.051. For the same compound, the “Replicate_1 (LOPAC_screen_w_protease)” value under setting [8] is recorded as 4.147. Further, under setting [9], the “Replicate_2 (LOPAC_screen_w_protease)” value is given as -0.04537.
For the compound `CCCN1CCO[C@@H]2c3cc(O)ccc3OC[C@H]21.Cl` [S(+)-PD 128,907 hydrochloride], the mean under setting [2] was 0.4405. Also, under setting [3], the Replicate_1 is recorded as 0.5719. The Replicate_2 under setting [4] was 0.3091.
Under “sheet LOPAC_screen_w_protease, primary screen with protease, 5 µM, mean of two replicates”, `Cc1cccc(/C=C/c2ccccc2)n1` [SIB 1893] showed a mean of 0.4194. This compound registered a Replicate_1 (sheet LOPAC_screen_w_protease, primary screen with protease, 5 µM, replicate 1) of 2.242. In addition, the Replicate_2 (sheet LOPAC_screen_w_protease, primary screen with protease, 5 µM, replicate 2) is on record as -1.403.
Take `CCCCCCCCCCCCCCCC(=O)OC(CC(=O)O)C[N+](C)(C)C.[Cl-]` (racemic) [Palmitoyl-DL-Carnitine chloride]: the mean (sheet LOPAC_screen_w_protease, primary screen with protease, compound at 5 µM, mean of two replicates) came to 2.684. For the setting “sheet LOPAC_screen_w_protease, primary screen with protease, compound at 5 µM, replicate 1”, the Replicate_1 is 2.378. This compound also returned a Replicate_2 (sheet LOPAC_screen_w_protease, primary screen with protease, compound at 5 µM, replicate 2) of 2.9894.
`Br.CN=c1nc(-c2ccccc2)n(-c2ccccc2)s1` [SCH-202676 hydrobromide]: the “mean (LOPAC screen with protease)” value (sheet LOPAC_screen_w_protease, primary screen at 5 µM, mean of two replicates) was found to be 100.647. For the same compound, for the setting “sheet LOPAC_screen_w_protease, primary screen at 5 µM, replicate 1”, the “Replicate_1 (LOPAC screen with protease)” value is 100.647. In addition, for the setting “sheet LOPAC_screen_w_protease, primary screen at 5 µM, replicate 2”, the “Replicate_2 (LOPAC screen with protease)” value stood at 100.647.
As to `CN(C)CC[C@@H](c1ccc(Br)cc1)c1ccccn1` [(+)-Brompheniramine maleate], the inhibition at 5 µM came to 1.03% under setting [14], 0.743% under setting [15] and 1.32% under setting [16].
For the compound `CCCn1c(=O)c2[nH]c(-c3ccc(OCC(=O)Nc4ccc(C#N)cc4)cc3)nc2n(CCC)c1=O` [MRS 1754], the inhibition at 5 µM reads like this: (sheet LOPAC_screen_w_protease, primary screen of LOPAC1280 at 5 µM with protease, mean of the two replicates, read-out: mean) 3.78%; (sheet LOPAC_screen_w_protease, primary screen of LOPAC1280 at 5 µM with protease, replicate 1, read-out: Replicate_1) 1.48%; (sheet LOPAC_screen_w_protease, primary screen of LOPAC1280 at 5 µM with protease, replicate 2, read-out: Replicate_2) 6.08%.
Regarding `O=C(O)C1=CC(=C(c2ccc(O)c(C(=O)O)c2)c2ccc(O)c(C(=O)O)c2)C=CC1=O` [Aurintricarboxylic acid, reference compound], the inhibition at 5 µM is 31.5% (read-out: Replicate_1 (LOPAC screen with protease)), 31.9% (read-out: Replicate_2 (LOPAC screen with protease)) and 31.7% (read-out: mean (LOPAC screen with protease)).
For `CCCn1c(=O)[nH]c(=O)c2nc[nH]c21` [3-n-Propylxanthine], the mean (sheet LOPAC_screen_w_protease, primary screen with protease, mean of two replicates) is listed as 2.529. This compound showed a Replicate_1 (sheet LOPAC_screen_w_protease, primary screen with protease, replicate 1) of 1.492. Under “sheet LOPAC_screen_w_protease, primary screen with protease, replicate 2”, the Replicate_2 is 3.5659.
For `NCC1(CC(=O)O)CCCCC1` [Gabapentin], the “mean (LOPAC_screen_w_protease)” value came out at 1.9821. The inhibition at 5 µM (read-out: Replicate_1 (LOPAC_screen_w_protease)) came to 3.94%. Moreover, the inhibition at 5 µM (read-out: Replicate_2 (LOPAC_screen_w_protease)) is 0.0248%.
As to `CC(C)NC(C)Cc1ccc(I)cc1` (stereo not drawn) [Iofetamine hydrochloride], the inhibition at 5 µM is, setting by setting: (read-out: Replicate_1) 3.54%; (read-out: Replicate_2) 3.79%; (read-out: mean) 3.67%.
Compound `Cc1nc2sccn2c(=O)c1CCN1CCC(=C(c2ccccc2)c2ccc(F)cc2)CC1` [Diacylglycerol kinase inhibitor I] returned a mean under setting [10] of 3.623. Under setting [11], this compound gave a Replicate_1 of 4.4123. In addition, the Replicate_2 under setting [12] came out at 2.833.
